Legend:
[1] = biological target: p38 MAPKα isoform (MAPK14) (Homo sapiens (Human), UniProt Q16539); experiment: p38 MAPKα enzyme inhibition (FRET, Z-LYTE), Method 2; format: biochemical; details: Method 2, different laboratory (Table 4a2)
[2] = system: β-catenin in d-U937 cells; experiment: (m) Accumulation of β catenin in d-U937 cells; format: cell-based, human
Method in brief: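 PMA-differentiated U937 macrophage-type cells (100 ng/mL, 48–72 hr) were exposed to test compound or vehicle for 18 hr, then fixed. β-catenin was measured by cell ELISA (HRP/TMB, OD450-655) and normalised to crystal violet OD595. Signals below 15% of the standard control were designated "-ve".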

[3] = Hepatic microsomal stability; format: in vitro ADME; details: scaled from intrinsic clearance, mean of two experiments
Description: • Microsomal stability assays were performed with incubations of test compounds at 0.1 μM (n=2, final DMSO concentration 0.25%), and carried out using pooled human, dog and rat hepatic microsomes from Xenotech (Lots 1210153, 0810143 and 1110042, respectively) at 0.25 mg protein/mL in the presence of co-factor, NADPH. The incubations were performed at 37° C. with 100 μL aliquots taken from the incubation, at 0, 2, 5, 10 and 20 minutes and reactions terminated by addition of 100 μL of acetonitrile containing carbamazepine as analytical internal standard. […] Half-life values were calculated from the relationship T1/2(min)=−0.693/λ • where λ was the slope of the Ln concentration vs time curve. • The in vitro intrinsic clearance, CIint (mL/min/kg), was calculated and scaled to hepatic extraction ratios using the following scaling parameters and formulae.
(§1) Formulae CIint(tissue clearance) mL/min/kg=[0.693/t½(min)]×[1/microsomal protein concentration mg/mL]×[mg microsomes/g liver]×[g liver/kg body weight] […] The incubations were performed at 37° C. with 100 μL samples taken from the incubation, at 0, 10, 20, 45 and 90 minutes, and reactions terminated by addition of 100 μL of acetonitrile containing carbamazepine as analytical internal standard. […] Half-life values were calculated from the relationship T1/2(min)=−0.693/λ • where λ was the slope of the Ln concentration vs time curve. • Standard compounds testosterone, midazolam and 4-methylumbelliferone are included in the assay design.

[4] = Cryopreserved hepatocyte stability; format: in vitro ADME; details: scaled from intrinsic clearance, mean of two experiments
Description: as §1
CIint(Tissue Clearance) mL/min/kg=[0.693/t½(min)]×[1/hepatocyte concentration (million cells/mL)]×[million cells/g liver]×[g liver/kg body weight] CIint(Hepatic clearance) mL/min/kg=hepatic blood flow×CIint/(hepatic blood flow+CIint) Hepatic extraction ratio (Eh)=CIint(Hepatic clearance) mL/min/kg/hepatic blood flow (mL/min/kg)

Sequence of p38 MAPKα isoform (MAPK14) (Q16539 whole entry, canonical isoform): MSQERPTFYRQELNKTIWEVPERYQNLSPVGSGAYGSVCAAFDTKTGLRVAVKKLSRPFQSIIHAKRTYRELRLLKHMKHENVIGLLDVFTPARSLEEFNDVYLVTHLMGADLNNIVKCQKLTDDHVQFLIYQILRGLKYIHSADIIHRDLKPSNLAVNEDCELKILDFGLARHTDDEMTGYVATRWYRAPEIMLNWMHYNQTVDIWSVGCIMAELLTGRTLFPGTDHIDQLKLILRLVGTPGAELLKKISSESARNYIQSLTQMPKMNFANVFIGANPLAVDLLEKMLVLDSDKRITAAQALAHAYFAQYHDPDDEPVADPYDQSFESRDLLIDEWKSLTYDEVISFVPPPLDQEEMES

In the case of `C#Cc1cc(Nc2nccc(Oc3ccc(NC(=O)Nc4cc(C(C)(C)C)nn4-c4ccc(OC)cc4)c4ccccc34)n2)cc(C(=O)NCCN2CCOCC2)c1` [Example 77, 3-((4-((4-(3-(3-(tert-Butyl)-1-(4-methoxyphenyl)-1H-pyrazol-5-yl)ureido)-naphthalen-1-yl)oxy)pyrimidin-2-yl)amino)-5-ethynyl-N-(2-morpholinoethyl)benzamide], the IC50 [1] is reported as 0.022 µM, the “% β-catenin induction” value ([2]; 1 μg/mL test compound) is reported as 1% and the “% β-catenin induction” value ([2]; 5 μg/mL test compound) is reported as 0%. For the same compound, the “% β-catenin induction” value ([2]; 10 μg/mL test compound) was −8%, the “Mean hepatic extraction ratio (Eh)” value ([3]; dog hepatic microsomes) was 0.94 and the “Mean hepatic extraction ratio (Eh)” value ([3]; rat hepatic microsomes) was 0.82. The “Mean hepatic extraction ratio (Eh)” value ([4]; dog hepatocytes) was 0.87, the “Mean hepatic extraction ratio (Eh)” value ([4]; human hepatocytes) was 0.69 and the “Mean hepatic extraction ratio (Eh)” value ([4]; rat hepatocytes) was 0.55.
